These results are taken from patent US20070232658A1, “Protein Kinase C Inhibitors for the Treatment of Autoimmune Diseases and of Transplant Rejiction” (priority 2004, published 2007).

Several values for one entry are separate records, joined by “and”; a condition that tells them apart may be missing. Equal values may be shown once.

Assay [1] has as its system heart allograft rejection. Kind of assay: Rat heart transplantation. The class given is in vivo. The note with it: rat heart transplant, Lewis/DA, 30 mg/kg bid. As for the experimental part:
The strain combination used: Male Lewis (RT^1 haplotype) and DA (RT^1 haplotype). The animals are anaesthetised using inhalational isofluorane. […] The aorta is ligated and divided distal to the first branch and the brachiocephalic trunk is divided at the first bifurcation. The left pulmonary artery is ligated and divided and the right side divided but left open. All other vessels are dissected free, ligated and divided and the donor heart is removed into iced saline.
The recipient is prepared by dissection and cross-clamping of the infra-renal abdominal aorta and vena cava. The graft is implanted with end-to-side anastomoses, using 10/0 monofilament suture, between the donor brachiocephalic trunk and the recipient aorta and the donor right pulmonary artery to the recipient vena cava. The clamps are removed, the graft tethered retroabdominally, the abdominal contents washed with warm saline and the animal is closed and allowed to recover under a heating lamp. Graft survival is monitored by daily palpation of the beating donor heart through the abdominal wall. Rejection is considered to be complete when heart beat stops. Increases of graft survival are obtained in animals treated with a compound of formula I, II, III or IV or a pharmaceutically acceptable salt or solvate thereof administered orally at a daily dose of 10 to 30 mg/kg bid. […]

For assay [2], the system named is Balb/c spleen cells stimulated by irradiated or mitomycin C treated CBA spleen cells. Kind of assay: Murine mixed lymphocyte reaction (MLR). To be noted: Mus musculus, 120 h, 5 days co-incubation, labeled precursor incorporation into DNA, read-out: IC50 (concentration resulting in 50% inhibition of cell proliferation). It is filed as cell-based. The procedure: Spleen cells (0.5×10^6) from Balb/c mice (female, 8-10 weeks) are co-incubated for 5 days with 0.5×10^6 irradiated (2000 rads) or mitomycin C treated spleen cells from CBA mice (female, 8-10 weeks). The irradiated allogeneic cells induce a proliferative response in the Balb/c spleen cells which can be measured by labeled precursor incorporation into the DNA. […] The antiproliferative effect of the compounds on the Balb/c cells is measured at various dilutions and the concentration resulting in 50% inhibition of cell proliferation (IC50) is calculated.

For `Cn1cc(C2=C(c3cn(C4CCN(Cc5ccccn5)CC4)c4ccccc34)C(=O)NC2=O)c2ccccc21` [Compound A, 3-(1-methyl-1H-indol-3-yl)-4-[1-{(1-pyridin-2-ylmethyl)-piperidin-4-yl}-1H-indol-3-yl]-pyrrole-2,5-dione], the “prolongation of graft survival” value in assay [1] was 14 days and 25 days and 26 days.

As for `Cn1cc(C2=C(c3cn(C4CCNCC4)c4ccccc34)C(=O)NC2=O)c2ccccc21` [Compound B, 3-(1-methyl-1H-indol-3-yl)-4-[1-(piperidin-4-yl)-1H-indol-3-yl]-pyrrole-2,5-dione], the IC50 in assay [2] was 195 nM.
